Laboratory results: US10882860B2, “Treatment of osteoarthritis” (Samumed, LLC, priority 2015, dated 2021)

Legend:
[1] = system: chondrogenic and osteogenic gene expression in human MSCs; test: Chondrogenic and osteogenic gene expression, qRT-PCR in human MSCs; assay type: cell-based; conditions: 10 nM and 30 nM, 21 days
Protocol: Human MSCs were plated in 10 cm dishes in chondrogenic induction medium (Lonza; DMEM, dexamethasone, ascorbate, insulin-transferrin-selenium [ITS supplement], gentamycin-amphotericin [GA-1000], sodium pyruvate, proline and L-glutamine) and treated with the compound of Formula (I) in DMSO (10 nM and 30 nM) or TGF-β3 (20 μg/mL) as a positive control. Cells were incubated at 37° C., 5% CO2 for 21 days, with media changes every 5 days. Cells were pelleted and washed, and total RNA was isolated and purified using RNeasy Plus Mini Kit (Qiagen). cDNA was synthesized from 1 μg of total RNA using QuantiTect Reverse Transcription kit (Qiagen). qRT-PCR was performed with QuantiTect SYBR Green PCR Kit (Qiagen) and gene-specific primers, using CFX384 thermal cycler (Biorad). Transcripts were quantitated by comparative Ct method and normalized to endogenous controls, β-actin and GAPDH. Fold changes were normalized to DMSO treated cells.

Human MSCs = test: Alcian Blue, Safranin O, and Type II collagen staining; assay type: cell-based; conditions: 14 or 21 days; compared to control
Protocol: Human MSCs were plated in 96-well plates in chondrogenic induction medium (Lonza; DMEM, dexamethasone, ascorbate, insulin-transferrin-selenium [ITS supplement], gentamycin-amphotericin [GA-1000], sodium pyruvate, proline and L-glutamine) and treated with the compound of Formula (I) in DMSO or TGFβ3 (20 μg/mL) as a positive control. Cells were incubated at 37° C., 5% CO2 for either 14 or 21 days, with media changes every 5 days. The cells were fixed using 4% formaldehyde (Electron Microscopy Sciences). For Alcian Blue staining, cells were incubated with 10 mg/mL Alcian Blue (Sigma-Aldrich) in 3% acetic acid (Sigma-Aldrich), pH 2.5 for 30 minutes, washed with PBS, and imaged using a light microscope (Life Technologies) at 10× magnification. For Safranin O staining, cells were incubated with 0.1% Safranin O (Sigma-Aldrich) in distilled water for 5 minutes, washed with PBS and imaged using a light microscope (Life Technologies) at 10× magnification. For Type II collagen staining, cells were incubated with primary antibody in 3% BSA, 0.3% Triton X-100 in PBS with overnight incubation at […]. Cells were then washed and incubated with fluorophore-linked secondary antibody and DAPI (Life Technologies) for 1 hr at room temperature. Cells were washed and imaged using EVOS FL Microscope (Life Technologies).

[2] = assay type: in vivo, beagle dogs; conditions: dog
Protocol: The local toxicology of Form 1 of the compound of Formula (I) in dogs was studied. The compound of Formula (I) (Form 1) was administered via single or multiple (9 times) intra-articular (IA) injections as a suspension composition in beagle dogs to evaluate local toxicity.
After IA injection, the right stifle joint was histologically evaluated for inflammation, cartilage health, bone density, etc. Toxicology was evaluated immediately after a single or multiple (3 or 9 once-monthly) IA injections.

[3] = Phase 1 clinical study: pharmacokinetics; assay type: in vivo; conditions: human; cohorts 1, 2, and 3 (0.03, 0.07, 0.23 mg); 0, 4, 24 hours, Weeks 4 and 12; BQL
Source text: The study was a first-in-human, multicenter, 24-week, placebo-controlled, single-dose, dose-escalation safety study of a Wnt pathway inhibitor in subjects suffering from moderate to severe symptomatic knee OA. The sample size was 20 subjects (randomized 4:1, 16 active: 4 placebo) per dosing cohort. Inclusion criteria included: Age, 50-75 years; Western Ontario and McMaster Universities Arthritis Index (WOMAC) Total score, 36-72 (out of 96); Kellgren-Lawrence grade, 2 or 3; and a willingness to omit pain medication for 24 hours prior to pain assessments. Exclusion criteria included: BMI>40; and treatment with IA steroids within 2 months or HA derivatives within 6 months prior to injection. A full list of the inclusion and exclusion criteria for this study can be found on clinicaltrials.gov (NCT02095548).
The dosing sequence included suspension compositions of either 0.03 mg, 0.07 mg, or 0.23 mg of the compound of Formula (I) (Form 1) per 2 mL injection in a vehicle containing 0.5% carboxymethylcellulose sodium and 0.05% polysorbate 80 in pH 7.4 phosphate buffered saline. […]
PK samples were collected at 0, 4, and 24 hours post dose, and at Weeks 4 and 12. All subjects in cohorts 1, 2, and 3 had levels below limits of quantitation (BQL<0.100 ng/mL) at all recorded time points.

SMILES: CC(C)CC(=O)Nc1cncc(-c2ccc3[nH]nc(-c4nc5c(-c6cccc(F)c6)cncc5[nH]4)c3c2)c1 [compound of Formula (I)]
- chondrogenic gene expression ([1]; FIG. 18A): upregulated
- osteogenic gene expression ([1]; FIG. 18B): downregulated
- chondrogenesis (Alcian Blue, Safranin O, Type II collagen staining) (Human MSCs): increased amount of chondrogenesis
- finding at the injection site of high-dose animals (synovium and extra-articular tissues) ([2]; in vivo): local inflammatory response
- no observed adverse effect level (NOAEL) ([2]; in vivo): 1.75 mg/knee
- histopathological effects in the bone and cartilage ([2]; single IA injection 0.07, 1.75 and 35 mg): no adverse histopathological effects
- plasma level (PK samples) [3]: < 0.100 ng/mL
